# Test results reported in patent US20180140602A1, “COMBINATION OF CHIMERIC ANTIGEN RECEPTOR THERAPY AND AMINO PYRIMIDINE DERIVATIVES” (Novartis AG, priority 2015, published 2018).
# “Also recorded” adds a separate entry of the source.
# Key:
# [1] = tested on: CART19 cells; assay: level of circulating CART19 cells under ibrutinib treatment (Example 42); format: in vivo; details: data shown in Example 42
# [2] = tested on: RL cells; assay: MTT assay, sensitivity to ibrutinib; format: cell-based; details: Homo sapiens, read-out: IC50, inhibition of proliferation
# [3] = tested on: Jeko-1 cells; assay: MTT assay, sensitivity to ibrutinib; format: cell-based; details: Homo sapiens; Jeko-1, MTT assay; read-out: IC50, inhibition of proliferation
# [4] = tested on: Mino cells; assay: MTT assay, sensitivity to ibrutinib; format: cell-based; details: Homo sapiens, read-out: IC50, inhibition of proliferation
# [5] = tested on: RL cells; assay: Sensitivity to ibrutinib by reduction of bioluminescence; format: cell-based, human; details: 0.1 nM to 10 μM
# [6] = tested on: Jeko-1 cells; assay: as above; format: cell-based, human; details: 0.1 nM to 10 μM
# [7] = tested on: MCL-RL cells; assay: MCL-RL systemic xenograft model in NSG mice; format: in vivo
# [8] = target: T1, ITK (Homo sapiens, UniProt Q08881); assay: ITK phosphorylation (pITK-Y180) in stimulated CART19 cells; format: cell-based
# T1 sequence (Q08881 1-620): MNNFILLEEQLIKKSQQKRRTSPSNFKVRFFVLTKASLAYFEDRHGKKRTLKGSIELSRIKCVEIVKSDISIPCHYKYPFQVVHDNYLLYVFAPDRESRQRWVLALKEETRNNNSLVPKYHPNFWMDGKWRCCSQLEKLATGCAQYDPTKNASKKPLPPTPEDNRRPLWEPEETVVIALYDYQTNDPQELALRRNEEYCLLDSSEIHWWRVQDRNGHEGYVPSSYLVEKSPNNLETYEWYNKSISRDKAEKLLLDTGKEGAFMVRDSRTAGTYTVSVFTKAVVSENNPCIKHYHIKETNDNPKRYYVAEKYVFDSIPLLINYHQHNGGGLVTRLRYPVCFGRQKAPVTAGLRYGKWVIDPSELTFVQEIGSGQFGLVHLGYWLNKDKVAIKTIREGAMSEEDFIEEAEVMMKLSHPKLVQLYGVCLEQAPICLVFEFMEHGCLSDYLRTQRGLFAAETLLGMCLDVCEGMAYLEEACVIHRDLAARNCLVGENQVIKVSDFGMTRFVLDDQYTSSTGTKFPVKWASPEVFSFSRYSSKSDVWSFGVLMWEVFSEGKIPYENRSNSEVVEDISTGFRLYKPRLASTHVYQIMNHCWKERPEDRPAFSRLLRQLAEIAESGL
# Excerpt: See Dubovsky et al. Blood 122.15(2013):2539-49.
# [9] = tested on: MCL; details: MCL treated with ibrutinib monotherapy; cited from earlier work
# [10] = tested on: CART19 cells; details: supra-physiologic concentrations
# [11] = tested on: mantle cell lymphoma; details: MCL patients; cited from earlier work
# [12] = patients; cited from earlier work
# [13] = target: T2, BTK (Homo sapiens, UniProt Q06187); assay: Inhibition of BTK activity in blood (anti-IgM/IL-4 B cell activation, CD69); format: cell-based; details: human whole blood, anti-IgM/IL-4, CD69 on CD19+ cells, 20 hours;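 further: heparinized blood from healthy donors, read by flow cytometry, with inhibition derived from the percentage of CD69-positive cells within the CD19-positive lymphocyte gate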
# T2 construct: Whole blood was collected with written consent from healthy volunteers by venipuncture into sodium heparin vials; endogenous in cells; host or cells: B cells in heparinised whole blood of healthy human volunteers
# T2 sequence (Q06187 whole entry): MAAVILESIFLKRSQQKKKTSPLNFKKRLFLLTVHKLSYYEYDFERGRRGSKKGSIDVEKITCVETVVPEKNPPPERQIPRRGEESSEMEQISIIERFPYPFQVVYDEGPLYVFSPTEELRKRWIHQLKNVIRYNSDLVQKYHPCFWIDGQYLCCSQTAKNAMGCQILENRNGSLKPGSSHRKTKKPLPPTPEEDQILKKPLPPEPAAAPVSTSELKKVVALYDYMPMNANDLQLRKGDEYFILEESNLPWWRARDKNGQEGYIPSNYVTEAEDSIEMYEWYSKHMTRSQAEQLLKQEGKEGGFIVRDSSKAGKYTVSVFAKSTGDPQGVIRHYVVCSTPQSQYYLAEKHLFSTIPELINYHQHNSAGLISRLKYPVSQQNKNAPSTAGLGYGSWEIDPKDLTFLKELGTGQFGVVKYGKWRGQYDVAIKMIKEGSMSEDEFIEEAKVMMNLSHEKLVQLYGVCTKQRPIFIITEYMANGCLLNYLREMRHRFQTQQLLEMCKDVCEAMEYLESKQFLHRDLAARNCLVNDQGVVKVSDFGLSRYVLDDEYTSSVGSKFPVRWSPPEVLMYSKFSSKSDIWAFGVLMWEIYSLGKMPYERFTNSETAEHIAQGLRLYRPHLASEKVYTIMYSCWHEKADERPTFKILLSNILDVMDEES
IC50 [13],Structure (SMILES),other results
,"C=CC(=O)N1CCC[C@@H](n2nc(-c3ccc(Oc4ccccc4)cc3)c3c(N)ncnc32)C1 [ibrutinib, 1-[(3R)-3-[4-Amino-3-(4-phenoxyphenyl)-1H-pyrazolo[3,4-d]pyrimidin-1-yl]piperidin-1-yl]prop-2-en-1-one]",level of circulating CART19 cells [1]: increases the level of circulating CART19 cells; IC50 [2]: 10 nM; IC50 [3]: ≤ 10000 nM; IC50 [4]: ≤ 10000 nM; sensitivity to ibrutinib (reduction of bioluminescence) [5]: sensitive to ibrutinib treatment in a dose-dependent manner; sensitivity to ibrutinib (reduction of bioluminescence) [6]: resistant to ibrutinib treatment; median overall survival ([7]; 25 mg/kg/day): 81 days; median overall survival ([7]; 125 mg/kg/day): 100 days; effect on tumor burden / tumor growth (bioluminescence) ([7]; MCL-RL engrafted NSG mice): dose-related sensitivity; also recorded: modestly delayed tumor growth at early time points; phosphorylated ITK (pITK-Y180) ([8]; non-specific stimulation via the TCR): reduction in phosphorylated ITK; ITK activation ([8]; specific stimulation via the CAR): did not lead to diminished ITK activation; median duration of response [9]: about 17.5 months; effect on CART19 cell functions [10]: inhibition of CART19 cell functions; duration of median response [11]: 17.5 months; patients who do not respond [11]: about 30%; mean peak concentration in serum [12]: 100 to 150 ng/mL
419 nM,CC#CC(=O)N[C@@H](C)COc1c(N)ncnc1-c1cc(F)cc(NC(=O)c2ccc(C3CC3)cc2F)c1C [Example 18],
176 nM,"C=CC(=O)N1C[C@H](C#N)C[C@H]1COc1c(N)ncnc1-c1cc(F)cc(NC(=O)c2ccc(C3CC3)cc2F)c1C [Example 39, N-(3-(5-(((2S,4R)-1-Acryloyl-4-cyanopyrrolidin-2-yl)methoxy)-6-aminopyrimidin-4-yl)-5-fluoro-2-methylphenyl)-4-cyclopropyl-2-fluorobenzamide]",
240 nM,"COC/C=C/C(=O)N(C)CCOc1c(N)ncnc1-c1cc(F)cc(NC(=O)c2ccc(C3CC3)cc2F)c1C [Example 9, (E)-N-(3-(6-Amino-5-(2-(4-methoxy-N-methylbut-2-enamido)ethoxy)pyrimidin-4-yl)-5-fluoro-2-methylphenyl)-4-cyclopropyl-2-fluorobenzamide]",
55 nM,"CC#CC(=O)N1C[C@H](F)C[C@H]1COc1c(N)ncnc1-c1cc(F)cc(NC(=O)c2ccc(C3CC3)cc2F)c1C [Example 32, N-(3-(6-Amino-5-(((2S,4R)-1-(but-2-ynoyl)-4-fluoropyrrolidin-2-yl)methoxy)pyrimidin-4-yl)-5-fluoro-2-methylphenyl)-4-cyclopropyl-2-fluorobenzamide]",
32 nM,"C=CC(=O)N1CCC[C@H]1COc1c(N)ncnc1-c1cc(F)cc(N2CCc3cc(C4CC4)ccc3C2=O)c1CO [Example 24, (S)-2-(3-(5-((1-Acryloylpyrrolidin-2-yl)methoxy)-6-aminopyrimidin-4-yl)-5-fluoro-2-(hydroxymethyl)phenyl)-6-cyclopropyl-3,4-dihydroisoquinolin-1(2H)-one]",
124 nM,"C#CC(=O)N1CC(Oc2c(N)ncnc2-c2cc(F)cc(NC(=O)c3ccc(C4CC4)cc3F)c2C)C1 [Example 3, N-(3-(6-Amino-5-((1-propioloylazetidin-3-yl)oxy)pyrimidin-4-yl)-5-fluoro-2-methylphenyl)-4-cyclopropyl-2-fluorobenzamide]",
222 nM,"CC#CC(=O)N1C[C@@H](OC)C[C@H]1COc1c(N)ncnc1-c1cc(F)cc(NC(=O)c2ccc(C3CC3)cc2F)c1C [Example 30, N-(3-(6-Amino-5-(((2S,4S)-1-(but-2-ynoyl)-4-methoxypyrrolidin-2-yl)methoxy)pyrimidin-4-yl)-5-fluoro-2-methylphenyl)-4-cyclopropyl-2-fluorobenzamide]",
76 nM,"CC#CC(=O)N1C[C@H](OC)C[C@H]1COc1c(N)ncnc1-c1cc(F)cc(NC(=O)c2ccc(C3CC3)cc2F)c1C [Example 27, N-(3-(6-Amino-5-(((2S,4R)-1-(but-2-ynoyl)-4-methoxypyrrolidin-2-yl)methoxy)pyrimidin-4-yl)-5-fluoro-2-methylphenyl)-4-cyclopropyl-2-fluorobenzamide]",
1110 nM,"C/C=C/C(=O)N1CC(Oc2c(N)ncnc2-c2cc(F)cc(NC(=O)c3ccc(C4CC4)cc3F)c2C)C1 [Example 2, (E)-N-(3-(6-Amino-5-((1-(but-2-enoyl)azetidin-3-yl)oxy)pyrimidin-4-yl)-5-fluoro-2-methylphenyl)-4-cyclopropyl-2-fluorobenzamide]",
57 nM,CC#CC(=O)N1CCC[C@H]1COc1c(N)ncnc1-c1cc(F)cc(NC(=O)c2ccc(C3CC3)cc2F)c1C [Example 23],
459 nM,"C=CC(=O)N(C)CCOc1c(N)ncnc1-c1cccc(-n2ccc3cc(C4CC4)cc(F)c3c2=O)c1 [Example 12, N-(2-((4-Amino-6-(3-(6-cyclopropyl-8-fluoro-1-oxoisoquinolin-2(1H)-yl)phenyl)pyrimidin-5-yl)oxy)ethyl)-N-methylacrylamide]",
968 nM,"C=CC(=O)N1CCC[C@@H](COc2c(N)ncnc2-c2cc(F)cc(NC(=O)c3ccc(C4CC4)cc3F)c2C)C1 [Example 37, (R)—N-(3-(5-((1-Acryloylpiperidin-3-yl)methoxy)-6-aminopyrimidin-4-yl)-5-fluoro-2-methylphenyl)-4-cyclopropyl-2-fluorobenzamide]",
33 nM,"C=CC(=O)N1C[C@H](OC)C[C@H]1COc1c(N)ncnc1-c1cc(F)cc(N2CCc3cc(C4CC4)ccc3C2=O)c1CO [Example 28, 2-(3-(5-(((2S,4R)-1-Acryloyl-4-methoxypyrrolidin-2-yl)methoxy)-6-aminopyrimidin-4-yl)-5-fluoro-2-(hydroxymethyl)phenyl)-6-cyclopropyl-3,4-dihydroisoquinolin-1(2H)-one]",
330 nM,CC#CC(=O)N(C)[C@@H](C)COc1c(N)ncnc1-c1cc(F)cc(NC(=O)c2ccc(C3CC3)cc2F)c1C [Example 20],
80 nM,"C=CC(=O)N1C[C@@H](C#N)C[C@H]1COc1c(N)ncnc1-c1cc(F)cc(NC(=O)c2ccc(C3CC3)cc2F)c1C [Example 40, N-(3-(5-(((2S,4S)-1-Acryloyl-4-cyanopyrrolidin-2-yl)methoxy)-6-aminopyrimidin-4-yl)-5-fluoro-2-methylphenyl)-4-cyclopropyl-2-fluorobenzamide]",
558 nM,"C=CC(=O)NC1(COc2c(N)ncnc2-c2cc(F)cc(NC(=O)c3ccc(C4CC4)cc3F)c2C)CC1 [Example 16, N-(3-(5-((1-Acrylamidocyclopropyl)methoxy)-6-aminopyrimidin-4-yl)-5-fluoro-2-methylphenyl)-4-cyclopropyl-2-fluorobenzamide]",
